Data from patent US11427567B2, “Imidazolyl pyrimidinylamine compounds as CDK2 inhibitors” (Incyte Corporation, priority 2019, dated 2022).

The compounds below were run against CDK2/Cyclin E1 (Homo sapiens (Human), UniProt P24941) (assay: CDK2/Cyclin E1 HTRF enzyme activity assay (Example A)). Details: 1 mM ATP.
Assay type: biochemical
Procedure: Assays were conducted in white 384-well polystyrene plates in a final reaction volume of 8 μL. […] HTRF signals were read after 1 hour at room temperature on a PHERAstar FS plate reader (BMG Labtech). Data was analyzed with IDBS XLFit and GraphPad Prism 5.0 software using a three or four parameter dose response curve to determine IC50 for each compound.

IC50, ≤ 50 nM:
CC1(CO)CCN1Cc1ccc(-n2cnc(-c3nc(NC4CCN(S(C)(=O)=O)CC4)ncc3C(F)(F)F)c2)c(Cl)c1 (centres unmarked) [Example 201, (1-(3-Chloro-4-(4-(2-((1-(methylsulfonyl)-piperidin-4-yl)amino)-5-(trifluoromethyl)-pyrimidin-4-yl)-1H-imidazol-1-yl)benzyl)-2-methylazetidin-2-yl)methanol]
CS(=O)(=O)N1CCC(Nc2ncc(C(F)(F)F)c(-c3cn(-c4ccc(CN5CCC5)cc4C(F)(F)F)cn3)n2)CC1 [Example 251, 4-(1-(4-(Azetidin-1-ylmethyl)-2-(trifluoromethyl)phenyl)-1H-imidazol-4-yl)-N-(1-(methylsulfonyl)piperidin-4-yl)-5-(trifluoromethyl)pyrimidin-2-amine]
CCNC(C)c1cccc(-n2cnc(-c3nc(NC4CCN(S(C)(=O)=O)CC4)ncc3C(F)(F)F)c2)c1Cl (centres unmarked) [Example 375, 4-(1-(2-Chloro-3-(1-(ethylamino)ethyl)phenyl)-1H-imidazol-4-yl)-N-(1-(methylsulfonyl)piperidin-4-yl)-5-(trifluoromethyl)pyrimidin-2-amine]
C[C@@]1(O)CCN(Cc2ccc(-n3cnc(-c4nc(N[C@@H]5CCN(S(C)(=O)=O)C[C@H]5F)ncc4C(F)(F)F)c3)c(Cl)c2)C1 [Example 397, (R)-1-(3-Chloro-4-(4-(2-(((3R,4R)-3-fluoro-1-(methylsulfonyl)piperidin-4-yl)amino)-5-(trifluoromethyl)pyrimidin-4-yl)-1H-imidazol-1-yl)benzyl)-3-methylpyrrolidin-3-ol]
C[C@@H]1CN(S(=O)(=O)C2CC2)CC[C@@H]1Nc1ncc(C(F)(F)F)c(-c2cn(-c3ccc(CNC4CC4)cc3Cl)cn2)n1 [Example 221, 4-(1-(2-Chloro-4-((cyclopropylamino)-methyl)phenyl)-1H-imidazol-4-yl)-N-((3R,4S)-1-(cyclo-propylsulfonyl)-3-methylpiperidin-4-yl)-5-(trifluoro-methyl)pyrimidin-2-amine]
CCS(=O)(=O)N1CCC(Nc2ncc(C(F)(F)F)c(-c3cn(-c4cccnc4C#N)cn3)n2)CC1 [Example 89, 3-(4-(2-((1-(Ethylsulfonyl)piperidin-4-yl)amino)-5-(trifluoromethyl)pyrimidin-4-yl)-1H-imidazol-1-yl)picolinonitrile]
CNCCc1cccc(-n2cnc(-c3nc(NC4CCN(S(C)(=O)=O)CC4)ncc3C(F)(F)F)c2)c1Cl [Example 467, 4-(1-(2-Chloro-3-(2-(methylamino)ethyl)phenyl)-1H-imidazol-4-yl)-N-(1-(methylsulfonyl)piperidin-4-yl)-5-(trifluoromethyl)pyrimidin-2-amine]
CCS(=O)(=O)N1CCC(Nc2ncc(C(F)(F)F)c(-c3cn(-c4ccc(CN5CCC5)cc4Cl)cn3)n2)CC1 [Example 229, 4-(1-(4-(Azetidin-1-ylmethyl)-2-chlorophenyl)-1H-imidazol-4-yl)-N-(1-(ethylsulfonyl)piperidin-4-yl)-5-(trifluoromethyl)pyrimidin-2-amine]
C[C@]1(O)CCN(Cc2ccc(-n3cnc(-c4nc(N[C@H]5CCN(S(C)(=O)=O)C[C@H]5F)ncc4C(F)(F)F)c3)c(Cl)c2)C1 [Example 412, (S)-1-(3-Chloro-4-(4-(2-(((3R,4S)-3-fluoro-1-(methylsulfonyl)piperidin-4-yl)amino)-5-(trifluoromethyl)pyrimidin-4-yl)-1H-imidazol-1-yl)benzyl)-3-methylpyrrolidin-3-ol]
CN(C)C(=O)c1ccc(-n2cnc(-c3nc(NC4CCN(S(C)(=O)=O)CC4)ncc3C(F)(F)F)c2)c(Cl)c1F [Example 136, 3-Chloro-2-fluoro-N,N-dimethyl-4-(4-(2-((1-(methylsulfonyl)piperidin-4-yl)amino)-5-(trifluoromethyl)pyrimidin-4-yl)-1H-imidazol-1-yl)benzamide]
CS(=O)(=O)N1CCC(Nc2ncc(C(F)(F)F)c(-c3cn(-c4ccc(N5CC[C@H](O)C5)cc4Cl)cn3)n2)CC1 [Example 139, (S)-1-(3-Chloro-4-(4-(2-((1-(methyl-sulfonyl)piperidin-4-yl)amino)-5-(trifluoromethyl)-pyrimidin-4-yl)-1H-imidazol-1-yl)-phenyl)pyrrolidin-3-ol]
CS(=O)(=O)N1CCC(Nc2ncc(C(F)(F)F)c(-c3cn(-c4ccc(CN5CC(O)C5)cc4C(F)(F)F)cn3)n2)CC1 [Example 259, 1-(4-(4-(2-((1-(Methylsulfonyl)piperidin-4-yl)amino)-5-(trifluoromethyl)pyrimidin-4-yl)-1H-imidazol-1-yl)-3-(trifluoromethyl)benzyl) azetidin-3-ol]
Cc1nc(-c2nc(NC3CCN(S(C)(=O)=O)CC3)ncc2C(F)(F)F)cn1-c1ccc(N2CCN(C)C(=O)C2)cc1F [Example 108, 4-(3-Fluoro-4-(2-methyl-4-(2-((1-(methylsulfonyl)-piperidin-4-yl)-amino)-5-(trifluoro-methyl)pyrimidin-4-yl)-1H-imidazol-1-yl)phenyl)-1-methylpiperazin-2-one]
Cc1c(C#N)cccc1-n1cc(-c2nc(N[C@H]3CCN(S(C)(=O)=O)C[C@H]3F)ncc2C(F)(F)F)nc1C [Example 306, 3-(4-(2-(((3R,4S)-3-Fluoro-1-(methylsulfonyl)piperidin-4-yl)amino)-5-(trifluoromethyl)pyrimidin-4-yl)-2-methyl-1H-imidazol-1-yl)-2-methylbenzonitrile]
Cc1nc(-c2nc(NC3CCN(S(C)(=O)=O)CC3)ncc2C(F)(F)F)cn1-c1ccc(N2CC[C@H](N(C)C)C2)cc1F [Example 110, (S)-4-(1-(4-(3-(Dimethylamino)-pyrrolidin-1-yl)-2-fluorophenyl)-2-methyl-1H-imidazol-4-yl)-N-(1-(methyl-sulfonyl)piperidin-4-yl)-5-(trifluoro-methyl)pyrimidin-2-amine]
CS(=O)(=O)N1CCC(Nc2ncc(C(F)(F)F)c(-c3cn(-c4ccc(C#N)cc4Cl)cn3)n2)CC1 [Example 1, 3-Chloro-4-(4-(2-((1-(methylsulfonyl)piperidin-4-yl)amino)-5-(trifluoromethyl)pyrimidin-4-yl)-1H-imidazol-1-yl)benzonitrile]
Cc1nc(-c2nc(NC3CCN(S(C)(=O)=O)CC3)ncc2C(F)(F)F)cn1-c1ccc(CNC2CC2)cc1F [Example 356, 4-(1-(4-((Cyclopropylamino)methyl)-2-fluorophenyl)-2-methyl-1H-imidazol-4-yl)-N-(1-(methylsulfonyl)piperidin-4-yl)-5-(trifluoromethyl)pyrimidin-2-amine]
CC(=O)N(C)Cc1ccc(-n2cnc(-c3nc(NC4CCN(S(C)(=O)=O)CC4)ncc3C(F)(F)F)c2)c(Cl)c1 [Example 174, N-(3-Chloro-4-(4-(2-((1-(methylsulfonyl)piperidin-4-yl)amino)-5-(trifluoromethyl)pyrimidin-4-yl)-1H-imidazol-1-yl)benzyl)-N-methylacetamide]
CS(=O)(=O)N1CC[C@H](Nc2ncc(C(F)(F)F)c(-c3cn(-c4cccnc4C#N)cn3)n2)[C@H](F)C1 [Example 47, 3-(4-(2-(((3R,4S)-3-Fluoro-1-(methylsulfonyl)piperidin-4-yl)amino)-5-(trifluoromethyl)pyrimidin-4-yl)-1H-imidazol-1-yl)picolinonitrile]
Cn1cnc(S(=O)(=O)N2CCC(Nc3ncc(C(F)(F)F)c(-c4cn(-c5c(Cl)cccc5C#N)cn4)n3)CC2)c1 [Example 5, 3-Chloro-2-(4-(2-((1-((1-methyl-1H-imidazol-4-yl)sulfonyl)piperidin-4-yl)amino)-5-(trifluoromethyl)pyrimidin-4-yl)-1H-imidazol-1-yl)benzonitrile]
CCNCc1ccc(-n2cc(-c3nc(N[C@H]4CCN(S(C)(=O)=O)C[C@H]4F)ncc3C(F)(F)F)nc2C)c(F)c1 [Example 389, 4-(1-(4-((Ethylamino)methyl)-2-fluorophenyl)-2-methyl-1H-imidazol-4-yl)-N-((3R,4S)-3-fluoro-1-(methylsulfonyl)piperidin-4-yl)-5-(trifluoromethyl)pyrimidin-2-amine]
CS(=O)(=O)N1CCC(Nc2ncc(Cl)c(-c3cn(-c4ccc(C#N)cc4Cl)cn3)n2)CC1 [Example 171, 3-Chloro-4-(4-(5-chloro-2-((1-(methylsulfonyl)-piperidin-4-yl)-amino)pyrimidin-4-yl)-1H-imidazol-1-yl)benzonitrile]
CCN1CCN(Cc2cc(F)c(-n3cnc(-c4nc(NC5CCN(S(C)(=O)=O)CC5)ncc4C(F)(F)F)c3)c(F)c2)CC1 [Example 351, 4-(1-(4-((4-Ethylpiperazin-1-yl)methyl)-2,6-difluorophenyl)-1H-imidazol-4-yl)-N-(1-(methylsulfonyl)piperidin-4-yl)-5-(trifluoromethyl)pyrimidin-2-amine]
Cc1nccc(-n2cnc(-c3nc(N[C@H]4CCN(S(C)(=O)=O)C[C@H]4F)ncc3C(F)(F)F)c2)c1Cl [Example 301, 4-(1-(3-Chloro-2-methylpyridin-4-yl)-1H-imidazol-4-yl)-N-((3R,4S)-3-fluoro-1-(methylsulfonyl)piperidin-4-yl)-5-(trifluoromethyl)pyrimidin-2-amine]
CS(=O)(=O)N1CC[C@@H](Nc2ncc(C(F)(F)F)c(-c3cn(-c4c(F)cc(CN5CCC5)cc4Cl)cn3)n2)[C@H](F)C1 [Example 404, 4-(1-(4-(Azetidin-1-ylmethyl)-2-chloro-6-fluorophenyl)-1H-imidazol-4-yl)-N-((3R,4R)-3-fluoro-1-(methylsulfonyl)piperidin-4-yl)-5-(trifluoromethyl)pyrimidin-2-amine]
CNCc1ccc(-n2cnc(-c3nc(NC4CCN(S(C)(=O)=O)CC4)ncc3C(F)(F)F)c2)c(C(F)F)n1 [Example 245, 4-(1-(2-(Difluoromethyl)-6-((methylamino)methyl)pyridin-3-yl)-1H-imidazol-4-yl)-N-(1-(methylsulfonyl)piperidin-4-yl)-5-(trifluoromethyl)pyrimidin-2-amine]
